The values that follow come from patent publication US6716833B2, “Acetylenic α-amino acid-based sulfonamide hydroxamic acid tace inhibitors” (priority 1999, dated 2004).

Where a name gives a salt, the structure may show the parent alone. Read-outs that look alike come from different tables or passages of the source.

What all share (format): biochemical
One assay addresses MMP-13 (Homo sapiens, UniProt P45452). The assay can be described thus: MMP-13 inhibition (thiopeptide or fluorescent peptide substrate). Conditions: read-out: MMP-13 IC50.
Assay [1] addresses TNF-α converting enzyme (TACE) (Homo sapiens, UniProt P78536). The assay can be described thus: TACE inhibition (fluorescent peptidyl substrate). Conditions: read-out: TACE IC50.
The target of the next assay is MMP-9 (Homo sapiens, UniProt P14780). Kind of assay: MMP-9 inhibition (thiopeptide or fluorescent peptide substrate). Conditions: read-out: MMP-9 IC50.
MMP-9, sequence (P14780 94-707): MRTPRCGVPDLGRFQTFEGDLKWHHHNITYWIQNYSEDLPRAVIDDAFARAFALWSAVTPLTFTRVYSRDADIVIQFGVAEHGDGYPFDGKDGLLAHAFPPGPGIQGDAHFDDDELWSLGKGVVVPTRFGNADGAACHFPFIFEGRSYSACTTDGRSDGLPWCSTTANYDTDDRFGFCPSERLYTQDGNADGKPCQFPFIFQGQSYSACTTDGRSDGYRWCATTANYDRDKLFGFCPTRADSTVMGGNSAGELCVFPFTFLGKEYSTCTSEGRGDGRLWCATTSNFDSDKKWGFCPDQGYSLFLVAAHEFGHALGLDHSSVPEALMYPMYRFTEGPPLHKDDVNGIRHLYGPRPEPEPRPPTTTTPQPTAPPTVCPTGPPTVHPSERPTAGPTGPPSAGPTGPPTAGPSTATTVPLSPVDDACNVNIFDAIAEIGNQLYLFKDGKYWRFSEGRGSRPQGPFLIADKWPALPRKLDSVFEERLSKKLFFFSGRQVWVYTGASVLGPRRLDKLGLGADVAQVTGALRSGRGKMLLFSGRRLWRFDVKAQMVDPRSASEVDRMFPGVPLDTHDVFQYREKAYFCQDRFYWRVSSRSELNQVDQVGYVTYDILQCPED
The target in a further assay is T1, MMP-1 (Homo sapiens, UniProt P03956).
T1 sequence (P03956 100-469): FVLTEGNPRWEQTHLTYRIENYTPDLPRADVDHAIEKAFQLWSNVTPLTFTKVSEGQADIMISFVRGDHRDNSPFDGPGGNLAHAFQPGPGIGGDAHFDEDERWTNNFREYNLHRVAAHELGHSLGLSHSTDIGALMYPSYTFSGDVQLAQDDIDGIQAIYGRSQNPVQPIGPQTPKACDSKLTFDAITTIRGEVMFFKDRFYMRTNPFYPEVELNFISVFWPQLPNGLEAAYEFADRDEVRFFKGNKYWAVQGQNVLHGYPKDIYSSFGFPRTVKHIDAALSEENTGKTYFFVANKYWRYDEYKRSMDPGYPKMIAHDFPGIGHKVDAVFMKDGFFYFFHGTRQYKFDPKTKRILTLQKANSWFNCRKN
The assay can be described thus: MMP-1 inhibition (thiopeptide or fluorescent peptide substrate). Conditions: read-out: MMP-1 IC50.

TNF-α converting enzyme (TACE), sequence (P78536 215-824, species assumed): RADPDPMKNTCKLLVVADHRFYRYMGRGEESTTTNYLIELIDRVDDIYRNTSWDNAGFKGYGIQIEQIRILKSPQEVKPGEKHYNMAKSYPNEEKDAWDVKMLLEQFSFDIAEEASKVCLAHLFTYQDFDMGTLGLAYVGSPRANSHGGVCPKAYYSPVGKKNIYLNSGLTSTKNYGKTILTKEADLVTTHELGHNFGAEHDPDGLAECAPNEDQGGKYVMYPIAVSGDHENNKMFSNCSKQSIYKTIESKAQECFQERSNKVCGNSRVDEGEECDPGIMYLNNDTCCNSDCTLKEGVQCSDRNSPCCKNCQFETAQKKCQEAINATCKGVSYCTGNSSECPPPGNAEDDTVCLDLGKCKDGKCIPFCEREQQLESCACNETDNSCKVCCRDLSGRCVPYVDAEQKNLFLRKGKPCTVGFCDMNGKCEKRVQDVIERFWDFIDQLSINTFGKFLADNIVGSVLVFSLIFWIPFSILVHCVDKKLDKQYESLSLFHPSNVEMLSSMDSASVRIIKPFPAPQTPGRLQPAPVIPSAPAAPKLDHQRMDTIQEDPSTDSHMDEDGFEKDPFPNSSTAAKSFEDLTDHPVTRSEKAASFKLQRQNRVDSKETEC
Experimental for MMP-13: (§1) The enzyme activity is measured by the rate of the color increase. The thiopeptide substrate is made up fresh as a 20 mM stock in 100% DMSO and the DTNB is dissolved in 100% DMSO as a 100 mM stock and stored in the dark at room temperature. Both the substrate and DTNB are diluted together to 1 mM with substrate buffer (50 mM HEPES pH 7.5, 5 mM CaCl2) before use. The stock of enzyme is diluted with buffer (50 mM HEPES, pH 7.5, 5 mM CaCl2, 0.02% Brij) to the desired final concentration.
(§2) Alternatively, a fluorescent peptide substrate is used. In this test procedure, the peptide substrate contains a fluorescent group and a quenching group. Upon cleavage of the substrate by an MMP, the fluorescence that is generated is quantitated on the fluorescence plate reader. The assay is run in HCBC assay buffer (50 mM HEPES, pH 7.0, 5 mM Ca^+2, 0.02% Brij, 0.5% Cysteine), with human recombinant MMP-1, MMP-9, or MMP-13. […] For the assay, substrate and enzymes are diluted in HCBC buffer to the desired concentrations. Compounds are added to the 96 well plate containing enzyme and the reaction is started by the addition of substrate.
(§3) For either the thiopeptide or fluorescent peptide test procedures, the slope of the line is calculated and represents the reaction rate. The linearity of the reaction rate is confirmed (r^2>0.85). The mean (x±sem) of the control rate is calculated and compared for statistical significance (p<0.05) with drug-treated rates using Dunnett's multiple comparison test.
Experimental for MMP-9: as §1, §2, §3

For `CC#CCOc1ccc(S(=O)(=O)N(CC)C(C(=O)NO)C(C)C)cc1` (stereo not drawn) [Example 108, 2-[(4-but-2-ynyloxy-Benzenesulfonyl)-ethyl-amino]-N-hydroxy-3-methyl-butyramide], the IC50 on MMP-13 was found to be 67 nM; in assay [1] it was 33 nM; on MMP-9, 119 nM; at MMP-1, 92 nM.

`CCCCC#CCOc1ccc(S(=O)(=O)N2CCSC(C)(C)C2C(=O)NO)cc1` (stereo not drawn) [Example 40, 4-(4-hept-2-ynyloxy-Benzenesulfonyl)-2,2-dimethyl-thiomorpholine-3-carboxylic Acid Hydroxyamide]: the IC50 on MMP-13 (Table 9) turned out to be 6.6 nM; in assay [1] (Table 9), 23 nM; on MMP-9 (Table 9), 7.8 nM; at MMP-1 (Table 9) it was 29 nM.

With `CC#CCOc1ccc(S(=O)(=O)N2CSC(C)(C)[C@@H]2C(=O)NO)cc1` [Example 286, (4S)-3-{[4-(2-Butynyloxy)phenyl]sulfonyl}-N-hydroxy-5,5-dimethyl-1,3-thiazolidine-4-carboxamide], the IC50 came out at 852 nM at MMP-13, 20 nM in assay [1], 1790 nM on MMP-9 and 3040 nM on MMP-1.

With `CC#CCOc1ccc(S(=O)(=O)N(C)C(C(=O)NO)c2ccc(OCCN3CCN(C(=O)OC(C)(C)C)CC3)cc2)cc1` (stereo not drawn) [Example 185, tert-Butyl 4-(2-{4-[1-[{[4-(2-Butynyloxy)phenyl]sulfonyl}(methyl)amino]-2-(hydroxyamino)-2-oxoethyl]phenoxy}ethyl)-1-piperazinecarboxylate], the concentration for half-maximal inhibition (IC50) on MMP-13 was 27 nM; in assay [1], 309 nM; at MMP-9, 53 nM; on MMP-1, 839 nM.

Regarding `CC1(C)SCCN(S(=O)(=O)c2ccc(OCC#CCCO)cc2)C1C(=O)NO` (stereo not drawn) [Example 244, N-Hydroxy-4-({4-[(5-hydroxy-2-pentynyl)oxy]phenyl}sulfonyl)-2,2-dimethyl-3-thiomorpholine Carboxamide], the IC50 turned out to be 14 nM on MMP-13 (Table 10), 62 nM in assay [1] (Table 10), 72 nM at MMP-9 (Table 10) and 35 nM on MMP-1 (Table 10).

In the case of `CC#CCOc1ccc(S(=O)(=O)N2CCN(C(=O)c3ccccc3)CCC2C(=O)NO)cc1` (stereo not drawn) [Example 289, 1-Benzoyl-4-{[4-(2-butynyloxy)phenyl]sulfonyl}-N-hydroxy-1,4-diazepane-5-carboxamide], the half-inhibitory concentration (IC50) on MMP-13 turned out to be 4 nM; in assay [1], 10 nM; at MMP-9, 12 nM; at MMP-1, 113 nM.

`CC#CCOc1ccc(S(=O)(=O)N2CCN(C(=O)C3(C)COC(C)(C)OC3)CC2C(=O)NO)cc1` (stereo not drawn) [Example 231, 1-{[4-(2-Butynyloxy)phenyl]sulfonyl}-N-hydroxy-4-[(2,2,5-trimethyl-1,3-dioxan-5-yl)carbonyl]-2-piperazinecarboxamide]: the IC50 was found to be 355 nM at MMP-13, 59 nM in assay [1], 1110 nM at MMP-9 and 2450 nM on MMP-1.

Regarding `CC#CCOc1ccc(S(=O)(=O)N2CCN(C(=O)N(C(C)C)C(C)C)CC2C(=O)NO)cc1` (stereo not drawn) [Example 218, 4-(4-but-2-ynyloxy-Benzenesulfonyl)-piperazine-1,3-dicarboxylic Acid 1-Diisopropylamide 3-Hydroxyamide], the half-inhibitory concentration (IC50) at MMP-13 turned out to be 213 nM; in assay [1], 49 nM; on MMP-9, 822 nM; on MMP-1, 3290 nM.

For `CC#CCOc1ccc(S(=O)(=O)N2C[C@H](CN)SC(C)(C)[C@@H]2C(=O)NO)cc1` [Example 276, (3S,6S)-cis-6-(Aminomethyl)-4-{[4-(2-butynyloxy)phenyl]sulfonyl}-N-hydroxy-2,2-dimethyl-3-thiomorpholinecarboxamide Hydrochloride], the IC50 on MMP-13 (Table 11) amounted to 24 nM; in assay [1] (Table 11) it was 57 nM; on MMP-9 (Table 11) it was 84 nM; at MMP-1 (Table 11) it was 21 nM.

In the case of `CC#CCOc1ccc(S(=O)(=O)N2CCN(C(=O)OC(C)(C)C)CC2C(=O)NO)cc1` (stereo not drawn) [Example 58, 4-(4-but-2-ynyloxy-Benzenesulfonyl)-3-hydroxycarbamoyl-piperazine-1-carboxylic Acid tert-Butyl Ester], the IC50 is 17 nM at MMP-13, 21 nM in assay [1], 24 nM at MMP-9 and 456 nM on MMP-1.

`CC#CCOc1ccc(S(=O)(=O)N2CCCN(C(=O)c3ccccc3)CC2C(=O)NO)cc1` (stereo not drawn) [Example 49, 4-Benzoyl-1-(4-but-2-ynyloxy-benzenesulfonyl)-[1,4]diazepane-2-carboxylic Acid Hydroxyamide]: the IC50 at MMP-13 is 65 nM; in assay [1], 17 nM; at MMP-9 it was 75 nM; on MMP-1, 362 nM.

Take `CN(CC#CCOc1ccc(S(=O)(=O)N2CCSC(C)(C)C2C(=O)NO)cc1)C(=O)OC(C)(C)C` (stereo not drawn) [Example 267, tert-Butyl 4-[4-({3-[(Hydroxyamino)carbonyl]-2,2-dimethyl-4-thiomorpholinyl}sulfonyl)phenoxy]-2-butynyl(methyl)carbamate]: the 50% inhibitory concentration (IC50) at MMP-13 (Table 10) was found to be 37 nM; in assay [1] (Table 10), 112 nM; at MMP-9 (Table 10) it was 1260 nM; on MMP-1 (Table 10), 364 nM.

Regarding `CC(C)(C)OC(=O)NCCC#CCOc1ccc(S(=O)(=O)N2CCSC(C)(C)C2C(=O)NO)cc1` (stereo not drawn) [Example 245, tert-Butyl 5-[4-({3-[(Hydroxyamino)carbonyl]-2,2-dimethyl-4-thiomorpholinyl}sulfonyl)phenoxy]-3-pentynylcarbamate], the IC50 on MMP-13 (Table 10) is 6.6 nM; in assay [1] (Table 10), 112 nM; on MMP-9 (Table 10) it was 2380 nM; on MMP-1 (Table 10), 300 nM.

In the case of `CC#CCOc1ccc(S(=O)(=O)N2CCS(=O)(=O)C(C)(C)[C@@H]2C(=O)NO)cc1` [Example 257, (3S)-4-{[4-(2-Butynyloxy)phenyl]sulfonyl}-N-hydroxy-2,2-dimethyl-3-thiomorpholine Carboxamide 1,1-Dioxide], the IC50 on MMP-13 (Table 9) stood at 23 nM; in assay [1] (Table 9), 24 nM; on MMP-9 (Table 9), 64 nM; on MMP-1 (Table 9), 24 nM.

On to `C#CCN(C(C(=O)NO)C(C)C)S(=O)(=O)c1ccc(OCC#CC)cc1` (stereo not drawn) [Example 109, 2-[{[4-(2-Butynyloxy)phenyl]sulfonyl}(2-propynyl)amino]-N-hydroxy-3-methylbutanamide], for which the IC50 stood at 53 nM on MMP-13, 55 nM in assay [1], 233 nM on MMP-9 and 210 nM on MMP-1.

For the compound `CC#CCOc1ccc(S(=O)(=O)N2CCN(C(=O)C(C)(CO)CO)CC2C(=O)NO)cc1` (stereo not drawn) [Example 232, 1-{[4-(2-Butynyloxy)phenyl]sulfonyl}-N-hydroxy-4-[3-hydroxy-2-(hydroxymethyl)-2-methylpropanoyl]-2-piperazinecarboxamide], the half-maximal inhibitory concentration (IC50) stood at 289 nM on MMP-13, 44 nM in assay [1], 785 nM at MMP-9 and 1680 nM at MMP-1.

In the case of `CC#CCOc1ccc(S(=O)(=O)N(C)C(C(=O)NO)c2ccc(OCCN(C)C)cc2)cc1` (stereo not drawn) [Example 182, 2-[{[4-(2-Butynyloxy)phenyl]sulfonyl}(methyl)amino]-2-{4-[2-(dimethylamino)ethoxy]phenyl}-N-hydroxyacetamide], the IC50 amounted to 15 nM on MMP-13, 16 nM in assay [1], 22 nM on MMP-9 and 487 nM at MMP-1.

Regarding `CC#CCOc1ccc(S(=O)(=O)N(CCCN(CC)CC)C(C(=O)NO)C(C)C)cc1` (stereo not drawn) [Example 118, 2-{{[4-(2-Butynyloxy)phenyl]sulfonyl}[3-(diethylamino)propyl]amino}-N-hydroxy-3-methylbutanamide], the IC50 at MMP-13 came to 45 nM; in assay [1], 154 nM; at MMP-9, 86 nM; at MMP-1, 121 nM.

`CC#CCOc1ccc(S(=O)(=O)N(CCCN2CCOCC2)C(C(=O)NO)C(C)C)cc1` (stereo not drawn) [Example 119, 2-{{[4-(2-Butynyloxy)phenyl]sulfonyl}[3-(4-morpholinyl)propyl]amino}-N-hydroxy-3-methylbutanamide]: the IC50 on MMP-13 is 46 nM; in assay [1] it was 124 nM; on MMP-9, 94 nM; on MMP-1, 129 nM.

Take `CC#CCOc1ccc(S(=O)(=O)N(C)C(C(=O)NO)C(C)(C)SCCC)cc1` (stereo not drawn) [Example 151, 2-[(4-but-2-ynyloxy-Benenesulfonyl)-methyl-amino]-N-hydroxy-3-methyl-3-propylsulfanyl-butyramide]: the IC50 on MMP-13 amounted to 14 nM; in assay [1], 31 nM; on MMP-9 it was 31 nM; on MMP-1 it was 24 nM.

For the compound `CC(C)(C)OC(=O)NCC#CCOc1ccc(S(=O)(=O)N2CCSC(C)(C)C2C(=O)NO)cc1` (stereo not drawn) [Example 266, tert-Butyl 4-[4-({3-[(Hydroxyamino)carbonyl]-2,2-dimethyl-4-thiomorpholinyl}sulfonyl)phenoxy]-2-butynylcarbamate], the IC50 on MMP-13 (Table 10) worked out at 4 nM; in assay [1] (Table 10) it was 74 nM; on MMP-9 (Table 10), 31 nM; at MMP-1 (Table 10) it was 26 nM.
